In US7504362B2, “Pesticidal compositions” (Merial Limited, priority 2002, dated 2009):

System: Ctenocephalides felis, Diabrotica undecimpunctata, Nephotettix cincticeps or Rhipicephalus sanguineus
Assay: Pooled statement: active in one or more of the above tests (Methods A to E)
Assay type: in vivo
Details: active = reaching the threshold of Method A, B, C, D or E; test not given per compound
Experimental: The following representative test procedures, using compounds of the invention, were conducted to determine the parasiticidal and pesticidal activity of compounds of the invention.
A test container was filled with 10 adults of Ctenocephalides felis. A glass cylinder was closed on one end with parafilm and placed on top of the test container. The test compound solution was then pipetted into bovine blood and added to the glass cylinder. The treated Ctenocephalides felis were held in this artificial dog test (blood 37° C., 40-60% relative humidity; Ctenocephalides felis 20-22° C., 40-60% relative humidity) and assessment performed at 24 and 48 hours after application. Active compounds gave at least 90% control of Ctenocephalides felis at a test concentration of 5 ppm or less.
Two days before application, seeds of maize were soaked in water under warm conditions to elicit fast germination. One day before application, eggs of Diabrotica undecimpunctata were transferred to one half of a Japanese filter paper placed in a plastic petri dish. Afterwards, a sprouted maize seed was placed on a moistened pad beside the filter paper. Three drops of 200 microliters of test compound solution were carefully pipetted onto the egg. The remainder of the solution was placed on the maize and then the Petri dish was closed. The treated eggs in the Petri dishes were held in a climate chamber for 6 days. The compound efficacy (percentage of dead eggs and/or larvae in comparison to untreated control) was assessed 6 days after application using a binocular microscope.
Active compounds gave at least 90% control of Diabrotica undecimpunctata at a test concentration of 10 ppm.
The leaves of 12 rice plants having a stem length of 8 cm were dipped for 5 seconds into an aqueous solution of the formulated test compound. After the solution had run off, the rice plants treated in this manner were placed in a Petri dish and populated with about 20 larvae (L3 stage) of Nephotettix cincticeps. The Petri dish was closed and then stored in a climate chamber (16 hours of light/day, 25° C., 40-60% relative humidity). After 6 days storage, the percentage mortality of leafhopper larvae was determined.
Active compounds gave at least 98% mortality of Nephotettix cinciceps larvae at a test concentration of 100 ppm.
Solutions of the test compounds were dropped onto filter paper, dried and the filter paper placed into test tubes and infested with 10 adults of Ctenocephalides felis. The treated Ctenocephalides felis were held in a climate chamber (26° C., 80% RH) and the percentage efficacy assessed 24 hours and 48 hours after application in comparison with the untreated control.
Active compounds gave at least 70% contact control of Ctenocephalides felis at a test concentration of 1000 ppm.
Solutions of the test compounds were dropped onto filter paper, dried and the filter paper placed into test tubes and infested with 20-30 larvae (L1) of Rhipicephalus sanguineus and the tubes closed with a clip. The treated Rhipicephalus sanguineus were held in a climate chamber (25° C., 90% RH) and the percentage efficacy assessed 24 hours after application in comparison with the untreated control. Active compounds gave at least 70% contact control of Rhipicephalus sanguineus at a test concentration of 100 ppm.

SMILES	active in one or more of the above tests
CN(c1c([S+]([O-])C(F)(F)F)c(C#N)nn1-c1c(Cl)cc(C(F)(F)F)cc1Cl)S(=O)(=O)c1ccc([N+](=O)[O-])cc1 (centres unmarked) [Compound 5-88]	active
CN(c1c([S+]([O-])C(F)(F)F)c(C#N)nn1-c1c(Cl)cc(C(F)(F)F)cc1Cl)S(=O)(=O)c1cccc2ccccc12 (centres unmarked) [Compound 5-89]	active
CN(c1c([S+]([O-])C(F)(F)F)c(C#N)nn1-c1c(Cl)cc(C(F)(F)F)cc1Cl)S(=O)(=O)c1ccc(-c2ccc(Cl)c(Cl)c2)cc1 (centres unmarked) [Compound 5-150]	active
CN(c1c([S+]([O-])C(F)(F)F)c(C#N)nn1-c1c(Cl)cc(C(F)(F)F)cc1Cl)S(=O)(=O)c1ccc(-c2ccc(F)cc2)cc1 (centres unmarked) [Compound 5-151]	active
CN(c1c([S+]([O-])C(F)(F)F)c(C(N)=S)nn1-c1c(Cl)cc(C(F)(F)F)cc1Cl)S(=O)(=O)Cc1ccccc1 (centres unmarked) [Compound 7-32]	active
